# pIC50: −log10 of the molar value.
# System: 188146-221-R-J1-PDC complex spheroid viability
# Assay: Anticancer human tumor 188146-221-R-J1-PDC patient-derived colon adenocarcinoma cell line growth inhibition [POLQ]
# Conditions: for pIC50: curve of first compound; for viability, T/C: stronger effect = lower value
# Method in brief: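 Patient-derived tumour cells were co-cultured with HUVEC and mesenchymal stem cells as multicellular spheroids at 37 °C. They were treated with POLQ inhibitors (novobiocin, ART-558, RP6685) alone or combined with other agents. Top concentrations were at or near clinical Cmax (otherwise 10 microM; SN-38 at 1 microM), decreasing in half-log steps.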
# 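Also: spheroids exposed to compounds for seven days.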
# 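For viability, T/C in this document: 100% = DMSO vehicle control viability.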
compound,measurement,setting,value
C=CC(=O)N1CCN(c2nc(=O)n(-c3c(C)ccnc3C(C)C)c3nc(-c4c(O)cccc4F)c(F)cc23)C(C)C1 (configuration not stated) + COC1C(OC(N)=O)C(O)C(Oc2ccc3c(O)c(NC(=O)c4ccc(O)c(CC=C(C)C)c4)c(=O)oc3c2C)OC1(C)C,pIC50,second compound 0.0316 µM,< 5.00
same,pIC50,second compound 0.1 µM,< 5.00
same,pIC50,second compound 0.316 µM,< 5.00
same,pIC50,second compound 1 µM,< 5.00
same,pIC50,second compound 3.16 µM,< 5.00
same,pIC50,second compound 10 µM,< 5.00
same,"viability, T/C","second compound 0.0316 µM, first compound 0.0316 µM",103%
same,"viability, T/C","second compound 0.0316 µM, first compound 0.1 µM",97%
same,"viability, T/C","second compound 0.0316 µM, first compound 0.316 µM",85.7%
same,"viability, T/C","second compound 0.0316 µM, first compound 1 µM",99.1%
same,"viability, T/C","second compound 0.0316 µM, first compound 3.16 µM",98.7%
same,"viability, T/C","second compound 0.0316 µM, first compound 10 µM",72.4%
same,"viability, T/C","second compound 0.1 µM, first compound 0.0316 µM",107%
same,"viability, T/C","second compound 0.1 µM, first compound 0.1 µM",107%
same,"viability, T/C","second compound 0.1 µM, first compound 0.316 µM",94.6%
same,"viability, T/C","second compound 0.1 µM, first compound 1 µM",105%
same,"viability, T/C","second compound 0.1 µM, first compound 3.16 µM",88.1%
same,"viability, T/C","second compound 0.1 µM, first compound 10 µM",92.6%
same,"viability, T/C","second compound 0.316 µM, first compound 0.0316 µM",110%
same,"viability, T/C","second compound 0.316 µM, first compound 0.1 µM",107%
same,"viability, T/C","second compound 0.316 µM, first compound 0.316 µM",103%
same,"viability, T/C","second compound 0.316 µM, first compound 1 µM",110%
same,"viability, T/C","second compound 0.316 µM, first compound 3.16 µM",95.3%
same,"viability, T/C","second compound 0.316 µM, first compound 10 µM",83.6%
same,"viability, T/C","second compound 1 µM, first compound 0.0316 µM",93.2%
same,"viability, T/C","second compound 1 µM, first compound 0.1 µM",105%
same,"viability, T/C","second compound 1 µM, first compound 0.316 µM",113%
same,"viability, T/C","second compound 1 µM, first compound 1 µM",101%
same,"viability, T/C","second compound 1 µM, first compound 3.16 µM",101%
same,"viability, T/C","second compound 1 µM, first compound 10 µM",90.4%
same,"viability, T/C","second compound 3.16 µM, first compound 0.0316 µM",107%
same,"viability, T/C","second compound 3.16 µM, first compound 0.1 µM",109%
same,"viability, T/C","second compound 3.16 µM, first compound 0.316 µM",100%
same,"viability, T/C","second compound 3.16 µM, first compound 1 µM",101%
same,"viability, T/C","second compound 3.16 µM, first compound 3.16 µM",90.3%
same,"viability, T/C","second compound 3.16 µM, first compound 10 µM",87.2%
same,"viability, T/C","second compound 10 µM, first compound 0.0316 µM",96%
same,"viability, T/C","second compound 10 µM, first compound 0.1 µM",107%
same,"viability, T/C","second compound 10 µM, first compound 0.316 µM",108%
same,"viability, T/C","second compound 10 µM, first compound 1 µM",97.5%
same,"viability, T/C","second compound 10 µM, first compound 3.16 µM",115%
same,"viability, T/C","second compound 10 µM, first compound 10 µM",93.7%
